Reference: publication PMC4710522, “A Novel Triazolopyridine-Based Spleen Tyrosine Kinase Inhibitor That Arrests Joint Inflammation” (PLoS ONE, 2016)
Where two headings read alike, the source gives them in different places.

Tests used:
Jak2 = test: JAK2 cellular selectivity assay (HEL Irf1-β-lactamase cells); type: cell-based; conditions: for IC50: read-out: IC50, Jak2-dependent cellular system
Procedure: (§1) HEL Irf1-β-lactamase cells were harvested, plated in 384-well plates, and incubated with CC-509 at indicated concentrations for 16 hours in a tissue culture incubator. The cells were then treated with Live Blazer-FRET B/G Substrate solution (Life Technologies, Carlsbad, CA) for 6 hours at room temperature in the dark. Fluorescence readings at 460 nm and 530 nm were taken using the Flexstation II (Molecular Devices). Myeloid colony forming assays to assess Jak2 cellular activity were conducted at ReachBio (Seattle, WA).
For the TEL-Syk assay, the intensity values for the 700 and 800 channel were exported as text files in ActivityBase (IDBS, Guildford, UK) to derive the ratios that reflect kinase activity. For LAD2 experiments, enzyme activity values were exported as text files into ActivityBase to calculate “percent release” according to the formula: 100* supernatant OD405/ (supernatant OD405 + (pellet OD405*pellet dilution factor)). For the basophil and B-cells assays, flow cytometry data was exported from the FACS Array and processed using FloJo software package (TreeStar, Inc., Ashland, Oregon). For the JAK2 HEL and Ramos NFAT β-lactamase assays, the fluorescence values obtained at 460 nm and 530 nm were exported into ActivityBase to calculate response ratios. For the neutrophil, macrophage, KDR, and JAK1/3 assays, raw values were exported into ActivityBase to calculate percent inhibition. All IC50 calculations were generated using XLfit (IDBS, Guildford, UK) algorithm 205 within Excel. For PCA, the OD from the saline injected site was subtracted from the OD from the anti-DNP IgE injected site. Evans blue dye extravasation was expressed as mean ± SEM and % inhibition for the test article groups was normalized to the cromolyn positive control. For the CIA model paw measurements (left and right ankle diameter) were taken for each individual animal and averaged. The mean data from each group was plotted and either the AUC(day 11–18) or % inhibition on day 18 was calculated. Data is expressed as mean ± SEM of each group with n = 6–12. […]

[1] = system: BCR-dependent CD69 upregulation on primary human B-cells; test: primary human B-cell assay, anti-IgM stimulated CD69 upregulation; type: cell-based
Procedure: Buffy coat-derived purified B-cells were generated using the RosetteSep B-cell and Ficoll-Paque Plus reagents, as described in protocols provided by the suppliers. Purified B-cells were plated in 96-well U-bottom plates, preincubated with CC-509 at indicated concentrations for 30 minutes, and then stimulated with anti-IgM for 14 hours in a tissue culture incubator. Plates were washed once in FBS Stain Buffer and incubated with the anti-CD69 antibody in the dark for 30 minutes at room temperature. Plates were washed three times and analyzed by flow cytometry on the FACSArray Bioanalyzer. Standard gating methods were used to identify B-cells and to measure the mean intensity of CD69 fluorescence. FCS files were exported and analyzed as described in the Data Analysis section.
For the TEL-Syk assay, the intensity values for the 700 and 800 channel were exported as text files in ActivityBase (IDBS, Guildford, UK) to derive the ratios that reflect kinase activity. For LAD2 experiments, enzyme activity values were exported as text files into ActivityBase to calculate “percent release” according to the formula: 100* supernatant OD405/ (supernatant OD405 + (pellet OD405*pellet dilution factor)). For the basophil and B-cells assays, flow cytometry data was exported from the FACS Array and processed using FloJo software package (TreeStar, Inc., Ashland, Oregon). For the JAK2 HEL and Ramos NFAT β-lactamase assays, the fluorescence values obtained at 460 nm and 530 nm were exported into ActivityBase to calculate response ratios. For the neutrophil, macrophage, KDR, and JAK1/3 assays, raw values were exported into ActivityBase to calculate percent inhibition. All IC50 calculations were generated using XLfit (IDBS, Guildford, UK) algorithm 205 within Excel. […] Evans blue dye extravasation was expressed as mean ± SEM and % inhibition for the test article groups was normalized to the cromolyn positive control. […] The mean data from each group was plotted and either the AUC(day 11–18) or % inhibition on day 18 was calculated. Data is expressed as mean ± SEM of each group with n = 6–12. […]

PKC-alpha_h = biological target: T1, PKC-alpha_h (Homo sapiens, UniProt P17252); test: SelectScreen kinase assay; type: biochemical; conditions: KM ATP
T1 construct: purchased Life Technologies (Invitrogen) SelectScreen, Z'-LYTE / Adapta
Procedure: (§2) Syk kinase mode of inhibition studies, including parameters described in Fig 1, were conducted on the LC3000 platform by Caliper Life Sciences (Hopkinton, MA) according to standard protocols developed by the supplier. […] Non-kinase enzyme assays and GPCR, ion channel, and transporter binding assays were run by CEREP (France). Non-GLP manual patch clamp hERG assays were run by ChanTest (Cleveland, Ohio). Vivid® Assay kits (Life Technologies) were used to measure the cytochrome P450 inhibition of the compound against CYP3A, CYP2C9, CYP2C19, CYP2D6, and CYP1A2, as described.
(§3) Kinase activity was measured using either the Z’-Lyte® or the Adapta® protocols as part of the SelectScreen™ profiling service offered at Life Technologies (Grand Island, NY). For the single point measurements (Part A), CC-509 was kept constant at 3 µM while ATP concentrations [ATP] used were at the KM for ATP (KM ATP) for that specific enyzme, at 10 or 100 µM ATP (10 ATP or 100 ATP, respectively), as indicated. Values expressed as percent control (% control) relative to DMSO-only wells (uninhibited, 100%).
(§4) Kinase activity was measured using either the Z’-Lyte® or the Adapta® protocols as part of the SelectScreen™ profiling service offered at Life Technologies (Grand Island, NY). […] Values expressed as percent control (% control) relative to DMSO-only wells (uninhibited, 100%).

PKC-betaI_h = biological target: T2, PKC-betaI_h (Homo sapiens, UniProt P05771); test: SelectScreen kinase assay; type: biochemical; conditions: KM ATP
T2 construct: purchased Life Technologies (Invitrogen) SelectScreen, Z'-LYTE / Adapta
T2 sequence (P05771 whole entry): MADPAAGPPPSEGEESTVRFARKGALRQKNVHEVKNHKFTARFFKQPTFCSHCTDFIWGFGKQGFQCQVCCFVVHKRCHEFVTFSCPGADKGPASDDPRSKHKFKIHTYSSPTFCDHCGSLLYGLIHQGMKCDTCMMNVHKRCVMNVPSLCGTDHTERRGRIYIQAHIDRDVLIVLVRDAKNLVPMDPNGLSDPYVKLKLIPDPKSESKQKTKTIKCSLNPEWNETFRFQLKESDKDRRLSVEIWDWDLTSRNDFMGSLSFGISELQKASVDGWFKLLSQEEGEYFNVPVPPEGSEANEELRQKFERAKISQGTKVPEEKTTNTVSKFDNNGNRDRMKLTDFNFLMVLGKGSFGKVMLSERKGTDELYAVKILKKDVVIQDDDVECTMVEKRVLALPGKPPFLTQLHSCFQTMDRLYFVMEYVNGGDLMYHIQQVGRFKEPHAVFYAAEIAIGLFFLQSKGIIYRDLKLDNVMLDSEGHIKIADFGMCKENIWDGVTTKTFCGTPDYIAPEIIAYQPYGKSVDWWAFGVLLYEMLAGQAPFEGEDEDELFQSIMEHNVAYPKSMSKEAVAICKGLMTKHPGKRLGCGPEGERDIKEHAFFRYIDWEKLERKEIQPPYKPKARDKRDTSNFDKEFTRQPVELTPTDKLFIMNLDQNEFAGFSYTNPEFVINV
Procedure: as §2, §3, §4

SGK_h = biological target: T3, SGK_h (Homo sapiens, UniProt O00141); test: SelectScreen kinase assay; type: biochemical; conditions: KM ATP
T3 construct: purchased Life Technologies (Invitrogen) SelectScreen, Z'-LYTE / Adapta
T3 sequence (O00141 whole entry): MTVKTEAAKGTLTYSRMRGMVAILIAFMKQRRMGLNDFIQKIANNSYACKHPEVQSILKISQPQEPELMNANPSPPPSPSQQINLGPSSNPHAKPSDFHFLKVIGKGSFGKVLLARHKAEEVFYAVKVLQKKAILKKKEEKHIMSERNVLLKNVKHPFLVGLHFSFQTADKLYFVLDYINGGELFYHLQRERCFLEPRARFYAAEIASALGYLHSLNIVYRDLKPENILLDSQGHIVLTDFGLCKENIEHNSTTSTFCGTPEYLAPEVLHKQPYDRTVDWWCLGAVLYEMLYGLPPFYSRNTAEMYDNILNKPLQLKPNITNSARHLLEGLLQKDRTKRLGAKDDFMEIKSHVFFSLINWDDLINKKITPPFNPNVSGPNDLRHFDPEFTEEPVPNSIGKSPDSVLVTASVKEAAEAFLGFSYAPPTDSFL
Procedure: as §2, §3, §4

[2] = system: FcγR-induced TNFα production in primary human macrophage; test: primary human macrophage assay, anti-IgG stimulated TNF secretion; type: cell-based
Procedure: Mobilized CD14-positive monocytes were plated in 96-well flat bottom plates in RPMI media supplemented with 100 ng/ml GM-CSF for 5 days. The plates were preincubated with CC-509 at indicated concentrations for 30 minutes. Biotinylated anti-IgG and streptavidin at 10 μg/ml final concentrations were thoroughly mixed, added to appropriate wells on the cell plate, and plate placed back in tissue culture incubator 8 hours. Following incubation, supernatants were collected and processed for TNFα Mesoscale single-plex cytokine assay as described by manufacturer (Mesoscale, Gaithersberg, MD). Briefly, the plates were incubated with sample or calibrator for 2 hours on an orbital shaker at room temperature. The detection antibody was added to all wells, the plate incubated for 2 hours at room temperature on an orbital shaker, and washed three times. Diluted Mesoscale detection solution was added to all wells and the plates were read on the Sector Imager instrument (Mesoscale, Gaithersberg, MD) plate reader.
For the TEL-Syk assay, the intensity values for the 700 and 800 channel were exported as text files in ActivityBase (IDBS, Guildford, UK) to derive the ratios that reflect kinase activity. For LAD2 experiments, enzyme activity values were exported as text files into ActivityBase to calculate “percent release” according to the formula: 100* supernatant OD405/ (supernatant OD405 + (pellet OD405*pellet dilution factor)). For the basophil and B-cells assays, flow cytometry data was exported from the FACS Array and processed using FloJo software package (TreeStar, Inc., Ashland, Oregon). For the JAK2 HEL and Ramos NFAT β-lactamase assays, the fluorescence values obtained at 460 nm and 530 nm were exported into ActivityBase to calculate response ratios. […] Evans blue dye extravasation was expressed as mean ± SEM and % inhibition for the test article groups was normalized to the cromolyn positive control. […] The mean data from each group was plotted and either the AUC(day 11–18) or % inhibition on day 18 was calculated. Data is expressed as mean ± SEM of each group with n = 6–12. […]

myeloid colonies = test: myeloid in vitro colony forming assay (ReachBio); type: cell-based; conditions: for IC50: partial inhibition, read-out: IC50, formation of myeloid colonies
Procedure: as §1

panel of 256 kinases = test: commercial panel of 256 kinases (SelectScreen), overall kinome selectivity; type: biochemical; conditions: for number of kinases inhibited by >80% of 256 kinases: 3 μM
Procedure: as §2, §3, §4

MH7A cells = test: MH7A synoviocytes, TNFα-induced IL-6 production; type: cell-based, human
Procedure: Cells were maintained in culture and assayed as described by supplier. Briefly, MH7A cells were seeded to 6000 cells/ well in 96 well plates 1 day prior to stimulation. Cells were pretreated with compounds for 30 minutes, stimulated with TNFα (2 ng/ml) or IL-1β (0.5 ng/ml) and placed in tissue culture incubator for 16 hours. Supernatants were collected and assayed for cytokines using the Mesoscale Proinflammatory Panel I or Proinflammatory 4-plex according to the manufacturer’s protocol (Mesoscale, Gaithersberg, MD).

SMILES | fold less potent than R406, Jak2 cellular (Jak2) | IC50 (Jak2) | IC50 ([1]; Homo sapiens, B-cell, B-cells BCR, curve shown in figure, read-out: IC50 printed in Fig 3B panel) | IC50 ([1]; Homo sapiens, B-cell, mean ± SD, minimum n = 3, read-out: IC50, BCR-dependent upregulation of cell surface CD69) | remaining activity at 3 µM (PKC-alpha_h; read-out: % control) | remaining activity at 3 µM (PKC-betaI_h; read-out: % control) | remaining activity at 3 µM (SGK_h; read-out: % control) | IC50 ([2]; Homo sapiens, Macrophage, mean ± SD, minimum n = 3, read-out: IC50, TNFα production induced by FcγR cross-linking) | IC50 ([2]; Homo sapiens, Macrophage FcγR, curve shown in figure, read-out: IC50 printed in Fig 3A panel) | concentration that completely inhibited colonies (myeloid colonies) | IC50 (myeloid colonies) | number of kinases inhibited by >80% of 256 kinases (panel of 256 kinases) | Gini score (panel of 256 kinases; calculated from activity in the kinase panel at 3 μM) | IC50, TNFα-induced IL-6 production (MH7A cells) | IC50 ([1]; mean ± SD, minimum n = 3, read-out: IC50, BCR-dependent upregulation of cell surface CD69) | % control (PKC-alpha_h; 3 µM) | % control (PKC-betaI_h; 3 µM) | % control (SGK_h; 3 µM) | IC50 ([2]; mean ± SD, minimum n = 3, read-out: IC50, TNFα production induced by FcγR cross-linking) | IC50 (MH7A cells)
c1cc(CC2CCOCC2)n2nc(Nc3ccc4c(NC5CCOCC5)n[nH]c4c3)nc2c1 [CC-509, [3-(2H-3,4,5,6-tetrahydropyran-4-ylamino)(1H-indazol-6-yl)][5-(2H-3,4,5,6-tetrahydropyran-4-ylmethyl)(2H-1,2,4-triazolo[1,5-a]pyridin-2-yl)]amine] | 1.7 fold | 5.45 ± 0.59 µM | 570 nM | 510 ± 90 nM | 71% | 92% | 96% | 170 ± 120 nM | 110 nM | 50 µM | 2800 nM | 27 | 0.53 | did not inhibit | – | – | – | – | – | –
COc1cc(Nc2ncc(F)c(Nc3ccc4c(n3)NC(=O)C(C)(C)O4)n2)cc(OC)c1OC [R406, reference compound] | – | […] | – | – | – | – | – | – | – | […] | 880 nM | 75 | – | – | 400 ± 220 nM | 42% | 59% | 94% | 290 ± 160 nM | 1040 ± 130 nM
